Assays:
[1] = tested on: participants with PPF; assay: Phase 2 study, PPF cohort: efficacy (rate of FVC decline in % of predicted, FVC); type: in vivo, human; details: for Relative Reduction: table title, dose not given
Procedure: A total of 123 participants with PPF were randomized. Participants (age ≥21 years) were randomized (1:1:1) to receive 30 mg or 60 mg Compound A or PBO twice daily for 26 weeks. […] Immunosuppressive medications (mycophenolate mofetil, mycophenolic acid, azathioprine and/or tacrolimus) were permitted only if dosing is stable for ≥6 months prior to screening. If receiving antifibrotic agents pirfenidone or nintedanib, patients had to receive a stable dosage for ≥3 months prior to screening and during the screening period; if not receiving pirfenidone or nintedanib, patients had to be naive to both drugs or not have received either 4 weeks prior to Day 1. A total of 47 (38.2%) subjects were receiving antifibrotic treatment (with or without immunosuppression therapy). Of those subjects, 34 were being treated with nintedanib and 13 with pirfenidone. Participants were stratified by usual interstitial pneumonia (UIP) pattern (presence versus absence) and background therapy (antifibrotics +/−ILD-targeted immunosuppression versus ILD-targeted immunosuppression alone versus none).UIP pattern was present in 52% of subjects and unclassifiable ILD was he most common disease categorization.
The study was not powered to detect statistical significance (no formal testing). No target effect size was defined in the study design. There were two estimand approaches for analysis: Treatment Policy: Effect of treatment with dose reduction as part of treatment regimen.
While-On Treatment: Effect of treatment without dose reduction.
The main efficacy endpoint, rate of FVC decline (in % of predicted) from baseline to wk-26 in the PPF cohort, was estimated using a linear mixed-effects model utilizing all FVC timepoints. It was analyzed under a primary estimand (utilizing all data, treatment policy strategy), and under supplementary estimand (utilizing all data up to the point of dose reduction, while-on-treatment strategy). Analysis was performed in the overall population as well as in sub-groups by 1) background anti-fibrotic treatment or not 2) UIP radiographic pattern (presence or not). The mean baseline ppFVC was 66.700 for the PPF cohort.

[2] = tested on: participants with IPF; assay: Phase 2 study, IPF cohort: efficacy (rate of change in ppFVC, FVC); type: in vivo, human; details: for relative treatment benefit compared to PBO (ppFVC) / relative reduction in rate of decline in ppFVC compared to PBO: 60 mg; for relative reduction in rate of decline in ppFVC compared to PBO: overall
Procedure: A total of 278 participants with IPF were randomized and 276 participants were treated as of the final analyses data cut-off (4 Aug. 2022). Male and female participants ≥40 years of age with IPF and percent predicted forced vital capacity (ppFVC)≥40% and percent predicted DLCO (ppDLCO)≥25%; diagnosed within 7 years of screening; having a centrally-read chest HRCT obtained at screening that was consistent with UIP or probable UIP, or having a lung biopsy consistent with UIP, were eligible to enter the study. The mean baseline ppFVC for all subjects was 76.5%. In the primary IPF cohort, participants were randomized (1:1:1) to receive 30 mg or 60 mg Compound A or placebo (PBO) twice daily for 26 weeks. Participants were stratified by standard of care (SoC) IPF therapy (pirfenidone versus nintedanib versus none) and region (Japan versus Rest of World) at randomization.
The primary objective of the study was to determine the rate of change in ppFVC from baseline to Week 26. The primary objective was evaluated with a two estimand framework to handle the intercurrent event of dose reduction to 10 mg BID or matching PBO when pre-specified low BP criteria is met. The primary estimand is adopted to estimate treatment effect when dose reduction is implemented. The supplementary estimand is adopted to estimate the effect of treatment without dose reduction.
Analysis Strategy: The primary estimand was to evaluate the efficacy of Compound A at 30 mg or 60 mg twice daily, compared to PBO in IPF participants who met the enrollment criteria, with or without use of SoC. The rate of decline in ppFVC (%) from baseline to Week 26 was compared using the difference between each dose and PBO as a population level summary regardless of dose reduction or treatment discontinuation for any reason (treatment policy strategy).
Analysis Strategy: The supplementary estimand for the primary objective is to evaluate the efficacy of Compound A at 30 mg or 60 mg twice daily without dose reduction, compared to the PBO in IPF subjects who met the enrollment criteria, with or without use of SoC. The rate of decline in ppFVC (%) from baseline to Week 26 has been compared using the difference between each dose and PBO as a population level summary regardless of treatment discontinuation for any reason (treatment policy strategy). In the event of dose reduction, data collected after dose reduction will not be considered relevant to the treatment effect of interest and therefore, will be treated as missing (while-on-treatment strategy).

CCCN(C)C(=O)OCc1c(-c2ccc(O[C@H]3CCC[C@H](C(=O)O)C3)c(C)n2)nnn1C [Compound A, (1S,3S)-3-((2-methyl-6-(1-methyl-5-(((methyl(propyl)carbamoyl)-oxy)methyl)-1H-1,2,3-triazol-4-yl)pyridin-3-yl)oxy)cyclohexane-1-carboxylic acid]
dose response (in words) ([1]; PPF cohort, 30 mg and 60 mg): Clear dose response | mean observed change from baseline in ppFVC percentage and FVC versus placebo (in words) ([1]; PPF cohort, 30 mg and 60 mg, FIGS. 10 and 11): show improvement over placebo at week 8 | consistency of efficacy across sub-groups (in words) ([1]; PPF cohort, irrespective of background antifibrotics or of UIP pattern): Efficacy consistent in all sub-groups | FVC (% Predicted) Rate of Decline, Difference ([1]; PPF, 30 mg - placebo, UIP Present, Primary Estimand): 0.88 % Predicted | FVC (% Predicted) Rate of Decline, Slope ([1]; PPF, 30 mg, Not Receiving Antifibrotic Treatment, Supplementary Estimand): −2.83 % Predicted | FVC (% Predicted) Rate of Decline, Slope ([1]; PPF, 30 mg, Overall Population, Primary Estimand - Treatment Policy): −2.7 % Predicted | FVC (% Predicted) Rate of Decline, Slope ([1]; PPF, 30 mg, Receiving Antifibrotic Treatment, Supplementary Estimand): −1.8 % Predicted | FVC (% Predicted) Rate of Decline, Slope ([1]; PPF, 30 mg, UIP Absent, Supplementary Estimand): −2.24 % Predicted | FVC (% Predicted) Rate of Decline, Slope ([1]; PPF, 30 mg, UIP Present, Primary Estimand): −3.07 % Predicted | FVC (% Predicted) Rate of Decline, Difference ([1]; PPF, 60 mg - placebo, UIP Absent, Supplementary Estimand): 3.8 % Predicted | FVC (% Predicted) Rate of Decline, Slope ([1]; PPF, 60 mg, Not Receiving Antifibrotic Treatment, Supplementary Estimand): −1.56 % Predicted | FVC (% Predicted) Rate of Decline, Slope ([1]; PPF, 60 mg, Overall Population, Supplementary Estimand - While On Treatment): −1.3 % Predicted | FVC (% Predicted) Rate of Decline, Slope ([1]; PPF, 60 mg, Receiving Antifibrotic Treatment, Supplementary Estimand): −1.1 % Predicted | FVC (% Predicted) Rate of Decline, Slope ([1]; PPF, 60 mg, UIP Absent, Supplementary Estimand): −0.7 % Predicted | FVC (% Predicted) Rate of Decline, Slope ([1]; PPF, 60 mg, UIP Present, Primary Estimand): −1.46 % Predicted | Treatment difference 60 mg v placebo, rate of decline in ppFVC baseline to Week 26 ([1]; PPF, Non UIP subgroup): 3.80 | Relative Reduction ([1]; PPF, Not Receiving Antifibrotic Treatment, Primary Estimand): Estimand - Treatment Policy (Relative Reduction = 68.5%) | Relative Reduction ([1]; PPF, Not Receiving Antifibrotic Treatment, Supplementary Estimand): Estimand - While on Treatment (Relative Reduction = 62.6%) | Relative Reduction ([1]; PPF, Receiving Antifibrotic Treatment, Primary Estimand): Estimand - Treatment Policy (Relative Reduction = 85%) | Relative Reduction ([1]; PPF, Receiving Antifibrotic Treatment, Supplementary Estimand): Estimand - While on Treatment (Relative Reduction = 74.9%) | Relative Reduction ([1]; PPF, UIP Absent, Primary Estimand): Policy Strategy (Relative Reduction = 83.6%) | Relative Reduction ([1]; PPF, UIP Absent, Supplementary Estimand): While on Treatment (Relative Reduction = 84.4%) | Relative Reduction ([1]; PPF, UIP Present, Primary Estimand): Policy Strategy (Relative Reduction = 63%) | Relative Reduction ([1]; PPF, UIP Present, Supplementary Estimand): While on Treatment (Relative Reduction = 54%) | efficacy compared to PBO (in words) ([2]; 30 mg dose group, Week 26): did not demonstrate efficacy | treatment response versus PBO (in words) ([2]; 60 mg dose group, Week 26, ppFVC and FVC (mL)): favorable treatment responses | relative treatment benefit compared to PBO (ppFVC) ([2]; not on background SoC, primary estimand): 113% | relative treatment benefit compared to PBO (ppFVC) ([2]; not on background SoC, supplementary estimand): 123% | relative treatment benefit compared to PBO (ppFVC) ([2]; on background SoC, primary estimand): 39% | relative treatment benefit compared to PBO (ppFVC) ([2]; on background SoC, supplementary estimand): 44% | relative reduction in rate of decline in ppFVC compared to PBO ([2]; primary estimand): 54% | relative reduction in rate of decline in ppFVC compared to PBO ([2]; supplementary estimand): 62%

— patent US20240261272A1, “LPA1 ANTAGONISTS FOR TREATING INTERSTITIAL LUNG DISEASE” (Bristol-Myers Squibb Company, priority 2022, published 2024)
